According to ChEMBL document CHEMBL5050861 (2021):
In brackets after ≈: the same amount, converted by molar mass.

Experiments:
Galactokinase = Galactokinase (Homo sapiens, UniProt P51570); assay: Inhibition of recombinant human GALK1 using ATP as substrate incubated for 1 hr and measured by Kinase-Glo assay
[1] = Stability of compound in rat microsomes assessed as half-life; type: ADME, Microsome
[2] = Kinetic aqueous solubility of the compound; type: physicochemical; conditions: buffer; read-out: Kinetic_solubility
[3] = Permeability of compound by PAMPA assay; type: ADME; conditions: read-out: permeability
[4] = Inhibition of recombinant mouse GALK1 using ATP as substrate incubated for 1 hr and measured by Kinase-Glo assay
Homo sapiens = organism: Homo sapiens; assay: Inhibition of human GALK1 K252A/E253A double mutant relative to control; set-up: concentration or dose not given beside the values; conditions: concentration not given here
[5] = Binding affinity towards human GALK1 K252A/E253A double mutant measured by surface plasmon resonance (SPR) assay
[6] = Inhibition of human GALK1 K252A/E253A double mutant; conditions: read-out: IC50
Fibroblast = assay: Inhibition of human GALK1 K252A/E253A double mutant in human skin fibroblasts at 10 uM assessed as reduction in Gal-1P accumulation; type: cell-based
[7] = Stability of compound in human liver microsomes assessed as half-life; type: ADME, Microsome
[8] = Stability of compound in rat liver microsomes assessed as half-life; type: ADME, Microsome
[9] = Stability of compound in mouse liver microsomes assessed as half-life; type: ADME, Microsome

Sequence of Galactokinase (P51570 whole entry): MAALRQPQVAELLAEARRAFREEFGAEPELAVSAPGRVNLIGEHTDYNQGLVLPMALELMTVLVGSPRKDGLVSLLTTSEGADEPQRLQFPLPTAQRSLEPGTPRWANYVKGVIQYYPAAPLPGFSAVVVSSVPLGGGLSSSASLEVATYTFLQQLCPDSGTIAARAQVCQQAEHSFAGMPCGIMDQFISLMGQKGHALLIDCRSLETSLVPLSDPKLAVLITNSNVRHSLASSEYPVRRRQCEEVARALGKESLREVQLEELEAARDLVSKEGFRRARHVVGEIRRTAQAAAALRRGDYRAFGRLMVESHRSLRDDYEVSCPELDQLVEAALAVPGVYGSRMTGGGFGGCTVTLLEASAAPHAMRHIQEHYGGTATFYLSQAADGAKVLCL

| SMILES | IC50 (Galactokinase; read-out: IC50) | half-life [1] | solubility kinetic [2] | Papp [3] | IC50 ([4]; read-out: IC50) | inhibition (Homo sapiens) | Kd [5] | IC50 [6] | IC50 (Galactokinase) | IC50 [4] | inhibition (Fibroblast) | t1/2 [7] | half-life [8] | half-life [9] |
| --- | --- | --- | --- | --- | --- | --- | --- | --- | --- | --- | --- | --- | --- | --- |
| CCn1cc(C(C)NC(=O)C2=C(C)NC(Nc3nc4cccc(N)c4o3)=NC2c2ccc(C)cc2Cl)cn1 (stereo not drawn) | 50 nM | 17.9 min | < 1 µg/mL | 333 ×10⁻⁶ cm/s | 1090 nM |  |  |  |  |  |  |  |  |  |
| CC1=C(C(=O)Nc2cc(C(=O)O)ccn2)C(c2ccccc2Cl)N=C(Nc2nc3cccc(N)c3o2)N1 (racemic) |  | > 30 min | > 76 µg/mL |  | 3430 nM | 100% | 12 nM | 77 nM |  |  |  |  |  |  |
| CC1=C(C(=O)Nc2cccc(Br)c2)C(c2ccccc2Cl)N=C(Nc2nc3ccccc3o2)N1 (stereo not drawn) |  | > 30 min | < 1 µg/mL | < 1.8 ×10⁻⁶ cm/s |  |  |  |  | Not Active | Not Active |  |  |  |  |
| CC1=C(C(=O)NCc2ccccc2Cl)C(c2ccccc2Cl)N=C(Nc2nc3ccccc3o2)N1 (stereo not drawn) |  | 4.22 min | < 1 µg/mL |  |  |  |  |  | Not Active | Not Active |  |  |  |  |
| CCOC(=O)c1ccc(NC(=O)C2=C(C)NC(Nc3nc4ccccc4o3)=NC2c2ccccc2Cl)cc1 (stereo not drawn) | 3850 nM | > 30 min | < 1 µg/mL | 8.8 ×10⁻⁶ cm/s |  |  |  |  |  |  |  |  |  |  |
| CC1=C(C(=O)Nc2cccc(Cl)c2)C(c2ccccc2Cl)N=C(Nc2nc3ccccc3o2)N1 (stereo not drawn) |  | > 30 min | < 1 µg/mL | < 9.2 ×10⁻⁶ cm/s |  |  |  |  | Not Active | Not Active |  |  |  |  |
| CC1=C(C(=O)N(C)c2ccccc2)C(c2ccccc2Cl)N=C(Nc2nc3ccccc3o2)N1 (stereo not drawn) |  | 1.18 min | < 1 µg/mL |  |  |  |  |  | Not Active | Not Active |  |  |  |  |
| CC1=C(C(=O)Nc2ccc(Cl)cc2)C(c2ccccc2Cl)N=C(Nc2nc3ccccc3o2)N1 (stereo not drawn) |  | > 30 min | < 1 µg/mL | 2 ×10⁻⁶ cm/s | 7690 nM |  |  |  | Not Active |  |  |  |  |  |
| CCOC(=O)C1=C(C)NC(Nc2nc3ccccc3o2)=NC1c1ccccc1Cl (stereo not drawn) |  | 19.3 min | < 1 µg/mL |  | 13700 nM |  |  |  | Not Active |  |  |  |  |  |
| COCC1=C(C(=O)Nc2nncs2)C(c2ccccc2Cl)N=C(Nc2nc3ccccc3o2)N1 (stereo not drawn) | 13700 nM | > 30 min | < 1 µg/mL |  | 19300 nM |  |  |  |  |  |  |  |  |  |
| CCn1cc(CNC(=O)C2=C(C)NC(Nc3nc4ccc(F)c(N)c4o3)=NC2c2ccc(C)cc2Cl)cn1 (racemic) |  | 14.1 min | < 1 µg/mL |  | 610 nM |  |  | 22 nM |  |  | 70% |  |  |  |
| CC1=C(C(=O)Nc2cc(C(=O)O)ccn2)C(c2ccccc2Cl)N=C(Nc2nc3ccc(F)cc3o2)N1 (racemic) |  | > 30 min | 46.1 µg/mL (≈ 88.5 µM) |  | 4320 nM | 100% | 23 nM | 260 nM |  |  |  |  |  |  |
| CCOC(=O)C1=C(C(C)C)NC(Nc2nc3ccccc3o2)=NC1c1ccccc1Cl (stereo not drawn) |  | 5.75 min | < 1 µg/mL |  |  |  |  |  | Not Active | Not Active |  |  |  |  |
| COC(=O)C1=C(C(F)(F)F)NC(Nc2nc3ccccc3o2)=NC1c1ccccc1Cl (stereo not drawn) |  | 10.5 min | 2.65 µg/mL (≈ 5.88 µM) |  |  |  |  |  | Not Active | Not Active |  |  |  |  |
| CC1=C(C(=O)Nc2cc(C(=O)O)ccn2)C(c2ccccc2Cl)N=C(Nc2nc3cccc(OC(F)(F)F)c3o2)N1 (stereo not drawn) |  | > 30 min | 47.8 µg/mL (≈ 81.4 µM) | < 10 ×10⁻⁶ cm/s |  | 88% |  | > 15000 nM | Not Active | Not Active |  |  |  |  |
| CC1=C(C(=O)Nc2nncs2)C2(Cc3ccccc32)N=C(Nc2nc3ccccc3o2)N1 (stereo not drawn) |  | > 30 min | 50.9 µg/mL (≈ 115 µM) |  |  |  |  |  | Not Active | Not Active |  |  |  |  |
| CC1=C(C(=O)NCc2cnn(C)c2)C(c2ccc(C)cc2Cl)N=C(Nc2nc3ccc(F)c(N)c3o2)N1 (stereo not drawn) |  | 17.1 min | 1.27 µg/mL (≈ 2.43 µM) |  | 690 nM |  |  | 14 nM |  |  | 100% | 47 min | 16 min | 13 min |
| COc1ccc2oc(NC3=NC(c4ccccc4Cl)C(C(=O)Nc4nnc(-c5cccnc5)s4)=C(C)N3)nc2c1 (stereo not drawn) |  | > 30 min | < 1 µg/mL | < 19.1 ×10⁻⁶ cm/s |  |  |  |  | Not Active | Not Active |  |  |  |  |
| CC1=C(C(=O)NCc2ccc(Cl)cc2)C(c2ccccc2Cl)N=C(Nc2nc3ccccc3o2)N1 (stereo not drawn) |  | 11.9 min | < 1 µg/mL |  |  |  |  |  | Not Active | Not Active |  |  |  |  |
| CC1=C(C(=O)Nc2nnc(-c3cccnc3)s2)C(c2ccccc2Cl)N=C(Nc2nc3ccc(C)cc3o2)N1 (stereo not drawn) |  | > 30 min | < 1 µg/mL | < 2.9 ×10⁻⁶ cm/s |  |  |  |  | Not Active | Not Active |  |  |  |  |
